Results as given in ChEMBL document CHEMBL4393664, “2,4-Disubstituted quinazolines targeting breast cancer cells via EGFR-PI3K” (Eur J Med Chem, 2019).
The source made the active and inactive calls. The rule behind the calls is not given here.

Experiments:
MDA-MB-231 [1] = assay: Antiproliferative activity against human MDA-MB-231 cells assessed as reduction in cell viability up to 32 uM by MTT assay; type: functional, cell-based; details: TDE = time-dependent effect
[2] = target: Epidermal growth factor receptor (Homo sapiens) (UniProt P00533); assay: Inhibition of EGFR phosphorylation at Y1045 residues in human MDA-MB-231 cells after 8 hrs by Western blot analysis; type: cell-based
Sequence of Epidermal growth factor receptor (Homo sapiens) (P00533 whole entry): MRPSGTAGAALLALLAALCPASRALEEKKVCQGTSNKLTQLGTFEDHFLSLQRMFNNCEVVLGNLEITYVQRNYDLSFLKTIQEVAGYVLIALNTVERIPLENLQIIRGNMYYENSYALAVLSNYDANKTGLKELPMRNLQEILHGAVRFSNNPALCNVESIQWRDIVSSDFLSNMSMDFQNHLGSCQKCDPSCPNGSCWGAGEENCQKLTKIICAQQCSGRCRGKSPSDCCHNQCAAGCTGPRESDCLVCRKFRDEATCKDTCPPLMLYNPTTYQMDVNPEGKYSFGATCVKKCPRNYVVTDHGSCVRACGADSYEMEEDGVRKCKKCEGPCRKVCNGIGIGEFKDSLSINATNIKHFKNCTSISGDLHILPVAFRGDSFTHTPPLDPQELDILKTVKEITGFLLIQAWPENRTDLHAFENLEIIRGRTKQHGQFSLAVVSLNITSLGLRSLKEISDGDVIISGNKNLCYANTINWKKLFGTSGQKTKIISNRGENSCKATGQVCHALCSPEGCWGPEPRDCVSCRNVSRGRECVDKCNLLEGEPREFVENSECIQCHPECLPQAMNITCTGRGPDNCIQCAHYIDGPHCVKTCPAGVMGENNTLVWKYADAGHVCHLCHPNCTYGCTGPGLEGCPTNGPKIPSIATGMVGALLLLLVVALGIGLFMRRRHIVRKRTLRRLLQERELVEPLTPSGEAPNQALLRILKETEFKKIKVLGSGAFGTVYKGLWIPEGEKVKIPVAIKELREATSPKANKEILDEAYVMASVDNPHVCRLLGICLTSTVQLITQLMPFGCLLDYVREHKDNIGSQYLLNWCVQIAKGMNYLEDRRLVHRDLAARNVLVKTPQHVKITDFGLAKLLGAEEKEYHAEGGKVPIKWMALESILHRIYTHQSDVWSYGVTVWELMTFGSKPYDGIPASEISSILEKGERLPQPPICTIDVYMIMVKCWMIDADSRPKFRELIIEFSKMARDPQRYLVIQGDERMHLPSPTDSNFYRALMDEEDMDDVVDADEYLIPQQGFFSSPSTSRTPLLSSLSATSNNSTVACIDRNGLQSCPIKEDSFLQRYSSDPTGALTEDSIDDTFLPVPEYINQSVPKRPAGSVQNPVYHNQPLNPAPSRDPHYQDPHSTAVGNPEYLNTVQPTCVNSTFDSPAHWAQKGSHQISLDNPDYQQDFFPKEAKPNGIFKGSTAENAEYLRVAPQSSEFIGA

MDA-MB-231 [3] = assay: Cell cycle arrest in human MDA-MB-231 cells assessed as accumulation at S phase at 12 uM after 24 hrs by propidium iodide/RNase A staining-based flow cytometric analysis (reference value: 23.07%); type: functional
MDA-MB-231 [4] = assay: Effect on total AKT protein level in human MDA-MB-231 cells up to 12 uM after 8 hrs by Western blot analysis; type: ADME, cell-based; details: mda-mb-231, 8 h
MDA-MB-231 [5] = assay: Cell cycle arrest in human MDA-MB-231 cells assessed as accumulation at G1 phase at 12 uM after 24 hrs by propidium iodide/RNase A staining-based flow cytometric analysis (reference value: 49.17%); type: functional
MCF7 [6] = assay: Effect on total EGFR protein level in human MCF7 cells up to 12 uM after 8 hrs by Western blot analysis; type: ADME, cell-based; details: mcf7, 8 h
MCF7 [7] = assay: Antiproliferative activity against human MCF7 cells assessed as reduction in cell viability after 24 to 72 hrs by MTT assay; type: functional, cell-based
MCF7 [8] = assay: Cell cycle arrest in human MCF7 cells assessed as accumulation at S phase at 3 uM after 24 hrs by propidium iodide/RNase A staining-based flow cytometric analysis (reference value: 17.17%); type: functional
MDA-MB-231 [9] = assay: Induction of apoptosis in human MDA-MB-231 cells assessed as early apoptotic cells at 2 uM after 48 hrs by Annexin-V-FITC/propidium iodide staining based flow cytometry (reference value: 4.33%); type: functional
MDA-MB-231 [10] = assay: Cell cycle arrest in human MDA-MB-231 cells assessed as accumulation at G1 phase at 6 uM after 24 hrs by propidium iodide/RNase A staining-based flow cytometric analysis (reference value: 49.17%); type: functional
MCF7 [11] = assay: Cell cycle arrest in human MCF7 cells assessed as accumulation at G2 phase at 6 uM after 24 hrs by propidium iodide/RNase A staining-based flow cytometric analysis (reference value: 30.62%); type: functional
MDA-MB-231 [12] = assay: Induction of apoptosis in human MDA-MB-231 cells assessed as increase in Bax expression levels at 3 to 12 uM after 48 hrs by Western blot analysis; type: functional, cell-based
MCF7 [13] = assay: Induction of apoptosis in human MCF7 cells assessed as necrotic cells at 6 uM after 48 hrs by Annexin-V-FITC/propidium iodide staining based flow cytometry (reference value: 1.57%); type: functional
MCF7 [14] = assay: Effect on total AKT protein level in human MCF7 cells up to 12 uM after 8 hrs by Western blot analysis; type: ADME, cell-based; details: mcf7, 8 h
[15] = target: Epidermal growth factor receptor (Homo sapiens) (UniProt P00533); assay: Inhibition of EGFR in human MCF7 cells assessed as reduction in phosphorylated PI3K expression after 8 hrs by Western blot analysis; type: cell-based
[16] = target: Epidermal growth factor receptor (Homo sapiens) (UniProt P00533); assay: Inhibition of EGFR phosphorylation at Y992 residues in human MCF7 cells after 8 hrs by Western blot analysis; type: cell-based
MDA-MB-231 [17] = assay: Induction of apoptosis in human MDA-MB-231 cells assessed as viable cells at 4 uM after 48 hrs by Annexin-V-FITC/propidium iodide staining based flow cytometry (reference value: 92.1%); type: functional; details: MDA-MB-231, 48 h, read-out: Activity
PC-3 = assay: Cytotoxicity against human PC3 cells assessed as reduction in cell viability after 72 hrs by MTT assay; type: functional, cell-based; details: PC-3, 72 h
MCF7 [18] = assay: Cytotoxicity against human MCF7 cells assessed as reduction in cell viability after 72 hrs by MTT assay; type: functional, cell-based; details: MCF7, 72 h
[19] = target: Epidermal growth factor receptor (Homo sapiens) (UniProt P00533); assay: Inhibition of EGFR phosphorylation at Y1068 residues in human MCF7 cells after 8 hrs by Western blot analysis; type: cell-based
MCF7 [20] = assay: Inhibition of colony formation in human MCF7 cells at 9 uM after 7 days by crystal violet staining based microscopic analysis; type: functional, cell-based
HGC-27 = assay: Cytotoxicity against human HGC27 cells assessed as reduction in cell viability after 72 hrs by MTT assay; type: functional, cell-based; details: HGC-27, 72 h
MDA-MB-231 [21] = assay: Induction of apoptosis in human MDA-MB-231 cells assessed as necrotic cells at 2 uM after 48 hrs by Annexin-V-FITC/propidium iodide staining based flow cytometry (reference value: 1.21%); type: functional
MDA-MB-231 [22] = assay: Cell cycle arrest in human MDA-MB-231 cells assessed as accumulation at G2 phase at 12 uM after 24 hrs by propidium iodide/RNase A staining-based flow cytometric analysis (reference value: 27.76%); type: functional
MCF7 [23] = assay: Cell cycle arrest in human MCF7 cells assessed as accumulation at G2 phase at 3 uM after 24 hrs by propidium iodide/RNase A staining-based flow cytometric analysis (reference value: 30.62%); type: functional
MCF7 [24] = assay: Effect on total PI3K protein level in human MCF7 cells up to 12 uM after 8 hrs by Western blot analysis; type: ADME, cell-based; details: mcf7, 8 h
[25] = target: Epidermal growth factor receptor (Homo sapiens) (UniProt P00533); assay: Inhibition of EGFR in human MDA-MB-231 cells assessed as reduction in phosphorylated PI3K expression after 8 hrs by Western blot analysis; type: cell-based
MDA-MB-231 [26] = assay: Cell cycle arrest in human MDA-MB-231 cells assessed as accumulation at G1 phase at 3 uM after 24 hrs by propidium iodide/RNase A staining-based flow cytometric analysis (reference value: 49.17%); type: functional
[27] = target: Epidermal growth factor receptor (Homo sapiens) (UniProt P00533); assay: Inhibition of EGFR phosphorylation at Y1045 residues in human MCF7 cells after 8 hrs by Western blot analysis; type: cell-based
MCF7 [28] = assay: Induction of apoptosis in human MCF7 cells assessed as increase in ROS generation up to 8 uM after 48 hrs by DHE dye-based fluorescence microscopic analysis; type: functional, cell-based
MDA-MB-231 [29] = assay: Induction of apoptosis in human MDA-MB-231 cells after 48 hrs by Annexin-V-FITC/propidium iodide staining based flow cytometry; type: functional, cell-based
MDA-MB-231 [30] = assay: Induction of apoptosis in human MDA-MB-231 cells assessed as increase in ROS generation up to 8 uM after 48 hrs by DHE dye-based fluorescence microscopic analysis; type: functional, cell-based
MCF7 [31] = assay: Cell cycle arrest in human MCF7 cells assessed as accumulation at G1 phase at 3 uM after 24 hrs by propidium iodide/RNase A staining-based flow cytometric analysis (reference value: 52.21%); type: functional
MCF7 [32] = assay: Induction of apoptosis in human MCF7 cells assessed as downregulation of Bcl-2 protein expression at 3 to 12 uM after 48 hrs by Western blot analysis; type: functional, cell-based
MDA-MB-231 [33] = assay: Induction of apoptosis in human MDA-MB-231 cells assessed as downregulation of Bcl-2 protein expression at 3 to 12 uM after 48 hrs by Western blot analysis; type: functional, cell-based
MDA-MB-231 [34] = assay: Induction of apoptosis in human MDA-MB-231 cells assessed as late apoptotic cells at 4 uM after 48 hrs by Annexin-V-FITC/propidium iodide staining based flow cytometry (reference value: 2.38%); type: functional
MDA-MB-231 [35] = assay: Cell cycle arrest in human MDA-MB-231 cells assessed as accumulation at S phase at 3 uM after 24 hrs by propidium iodide/RNase A staining-based flow cytometric analysis (reference value: 23.07%); type: functional
[36] = target: Epidermal growth factor receptor (Homo sapiens) (UniProt P00533); assay: Inhibition of EGFR in human MCF7 cells assessed as reduction in phosphorylated AKT expression after 8 hrs by Western blot analysis; type: cell-based

**Q.** Which results are given for `FC(F)(F)c1ccc(CSc2nc(Nc3ccc(C(F)(F)F)cc3)c3ccccc3n2)cc1`?
**A.** Activity (MDA-MB-231 [1]): Tde; inhibition [2]: Dose-dependent effect; Activity (MDA-MB-231 [3]): 18.77%; Activity (MDA-MB-231 [4]): Non-Toxic; Activity (MDA-MB-231 [5]): 69.54%; Activity (MCF7 [6]): Non-Toxic; Activity (MCF7 [7]): Dose-dependent effect; Activity (MCF7 [8]): 20.44%; Activity (MDA-MB-231 [9]): 6.56%; Activity (MDA-MB-231 [10]): 60.7%; Activity (MCF7 [11]): 15.43%; Activity (MDA-MB-231 [12]): Active; Activity (MCF7 [13]): 1.8%; Activity (MCF7 [14]): Non-Toxic; inhibition [15]: Dose-dependent effect; inhibition [16]: Dose-dependent effect; viability at 4 µM (MDA-MB-231 [17]): 71.1%; IC50 (PC-3): 7.88 µM; IC50 (MCF7 [18]): 5.1 µM; inhibition [19]: Dose-dependent effect; growth inhibition (GI) (MCF7 [20]): Active; IC50 (HGC-27): 7.56 µM; Activity (MDA-MB-231 [21]): 2.6%; Activity (MDA-MB-231 [22]): 11.69%; Activity (MCF7 [23]): 20.38%; Activity (MCF7 [24]): Non-Toxic; inhibition [25]: Dose-dependent effect; Activity (MDA-MB-231 [26]): 53%; inhibition [27]: Dose-dependent effect; Activity (MCF7 [28]): Active; Activity (MDA-MB-231 [29]): Dose-dependent effect; Activity (MDA-MB-231 [30]): Active; Activity (MCF7 [31]): 59.18%; Activity (MCF7 [32]): Active; Activity (MDA-MB-231 [33]): Active; Activity (MDA-MB-231 [34]): 15.3%; Activity (MDA-MB-231 [35]): 18.96%; inhibition [36]: Dose-dependent effect
